Several values for one entry are separate records, joined by “and”; a condition that tells them apart may be missing. Identical values can stand only once. Like-named read-outs stand apart in the source and are kept apart here.
Legend:
Format in all cases: cell-based
Settings in all cases: active ingredient alone
[1] = test system: Botrytis cinerea; assay: Fungal growth assay, Botrytis cinerea (Example B-1 a)
[2] = test system: Pyricularia oryzae
[3] = test system: Alternaria solani; assay: Fungal growth assay, Alternaria solani (Example B-4 a)
[4] = test system: Leptosphaeria nodorum; assay: Fungal growth assay, Leptosphaeria nodorum (Example B-8)
[5] = test system: Septoria tritici; assay: Fungal growth assay, Septoria tritici (Example B-2 a)
[6] = test system: Pythium ultimum; assay: Fungal growth assay, Pythium ultimum (Example B-7)
[7] = test system: Pyrenophora teres; assay: Fungal growth assay, Pyrenophora teres (Example B-5 a)
[8] = test system: Venturia inaequalis; assay: Fungal growth assay, Venturia inaequalis (Example B-6 a)

OC(Cc1ccccc1Cl)(Cn1nc[nH]c1=S)C1(Cl)CC1 (stereo not drawn) [Prothioconazole]
Observed control in % (% Cobs) ([1]; 0.0222 ppm [mg/L]): 8%
Observed control in % (% Cobs) ([1]; 0.0667 ppm [mg/L]): 17%
Observed control in % (% Cobs) ([1]; 0.2000 ppm [mg/L]): 52%

CC(C1CC1)C(O)(Cn1cncn1)c1ccc(Cl)cc1 (stereo not drawn) [Cyproconazole]
Observed control in % (% Cobs) ([2]; 0.022 ppm [mg/L]): 0%
Observed control in % (% Cobs) ([2]; 0.200 ppm [mg/L]): 0%

CO/C=C(/C(=O)OC)c1ccccc1COc1cccc(C(F)(F)F)n1 [Picoxystrobin]
Observed control in % (% Cobs) ([1]; 0.0222 ppm [mg/L]): 0%
Observed control in % (% Cobs) ([1]; 0.0667 ppm [mg/L]): 6%
Observed control in % (% Cobs) ([1]; 0.2000 ppm [mg/L]): 12%
Observed control in % (% Cobs) ([1]; 0.6000 ppm [mg/L]): 20%

CO/C=C(/C(=O)OC)c1ccccc1Oc1cc(Oc2ccccc2C#N)ncn1 [Azoxystrobin]
Observed control in % (% Cobs) ([1]; 0.60 ppm [mg/L]): 7%
Observed control in % (% Cobs) ([1]; 1.80 ppm [mg/L]): 14%

N#Cc1c[nH]cc1-c1cccc2c1OC(F)(F)O2 [Fludioxonil]
Observed control in % (% Cobs) ([3]; 0.022 ppm [mg/L]): 1%
Observed control in % (% Cobs) ([3]; 0.067 ppm [mg/L]): 24%

Cc1cc(C2CC2)nc(Nc2ccccc2)n1 [Cyprodinil]
Observed control in % (% Cobs) ([2]; 0.002 ppm [mg/L]): 0%
Observed control in % (% Cobs) ([2]; 0.007 ppm [mg/L]): 0%
Observed control in % (% Cobs) ([2]; 0.067 ppm [mg/L]): 0%

N#Cc1c(Cl)c(Cl)c(Cl)c(C#N)c1Cl [Chlorothalonil]
Observed control in % (% Cobs) ([2]; 0.002 ppm [mg/L]): 0%
Observed control in % (% Cobs) ([2]; 0.007 ppm [mg/L]): 0%
Observed control in % (% Cobs) ([2]; 0.067 ppm [mg/L]): 0%

CC(C)C1C2CCC1c1c(NC(=O)c3cn(C)nc3C(F)F)cccc12 (racemic) [Cpd Ic]
Observed control in % (% Cobs) ([4]; 0.0222 ppm [mg/L]): 0%
Observed control in % (% Cobs) ([4]; 0.0667 ppm [mg/L]): 0%
Observed control in % (% Cobs) ([4]; 0.2000 ppm [mg/L]): 0%
Observed control in % (% Cobs) ([2]; 0.0001 ppm [mg/L]): 2%
Observed control in % (% Cobs) ([2]; 0.0008 ppm [mg/L]): 3%
Observed control in % (% Cobs) ([2]; 0.0025 ppm [mg/L]): 13% and 6%
Observed control in % (% Cobs) ([2]; 0.0074 ppm [mg/L]): 33%
Observed control in % (% Cobs) ([2]; 0.0222 ppm [mg/L]): 59%
Observed control in % (% Cobs) ([3]; 0.0025 ppm [mg/L]): 8%
Observed control in % (% Cobs) ([3]; 0.0074 ppm [mg/L]): 27%
Observed control in % (% Cobs) ([5]; 0.0001 ppm [mg/L]): 1%
Observed control in % (% Cobs) ([5]; 0.0008 ppm [mg/L]): 13%
Observed control in % (% Cobs) ([6]; 0.0667 ppm [mg/L]): 0%
Observed control in % (% Cobs) ([6]; 0.2000 ppm [mg/L]): 0%
Observed control in % (% Cobs) ([6]; 0.6000 ppm [mg/L]): 0%
Observed control in % (% Cobs) ([7]; 0.0667 ppm [mg/L]): 37%
Observed control in % (% Cobs) ([7]; 0.2000 ppm [mg/L]): 55%
Observed control in % (% Cobs) ([8]; 0.0222 ppm [mg/L]): 6% and 10%
Observed control in % (% Cobs) ([8]; 0.0667 ppm [mg/L]): 18%
Observed control in % (% Cobs) ([8]; 0.2000 ppm [mg/L]): 59%
Observed control in % (% Cobs) ([1]; 0.0025 ppm [mg/L]): 0%
Observed control in % (% Cobs) ([1]; 0.0074 ppm [mg/L]): 10%
Observed control in % (% Cobs) ([1]; 0.0222 ppm [mg/L]): 23% and 18% and 12%
Observed control in % (% Cobs) ([1]; 0.0667 ppm [mg/L]): 35% and 28%
Observed control in % (% Cobs) ([1]; 0.2000 ppm [mg/L]): 71%

CC(Cc1ccc(C(C)(C)C)cc1)CN1CCCCC1 (stereo not drawn) [Fenpropidin]
Observed control in % (% Cobs) ([6]; 5.4000 ppm [mg/L]): 11%
Observed control in % (% Cobs) ([6]; 16.2000 ppm [mg/L]): 34%

CC1CCN(c2c(-c3c(F)cc(F)cc3F)c(Cl)nc3ncnn23)CC1 [Cpd B-1]
Observed control in % (% Cobs) ([8]; 0.0008 ppm [mg/L]): 17%
Observed control in % (% Cobs) ([8]; 0.0025 ppm [mg/L]): 32%
Observed control in % (% Cobs) ([8]; 0.0074 ppm [mg/L]): 61%

CCCC1COC(Cn2cncn2)(c2ccc(Cl)cc2Cl)O1 (stereo not drawn) [Propiconazole]
Observed control in % (% Cobs) ([5]; 0.007 ppm [mg/L]): 0%
Observed control in % (% Cobs) ([5]; 0.067 ppm [mg/L]): 7%

CC(Cc1ccc(C(C)(C)C)cc1)CN1C[C@@H](C)O[C@@H](C)C1 (stereo partly drawn) [Fenpropimorph]
Observed control in % (% Cobs) ([8]; 0.0025 ppm [mg/L]): 0%
Observed control in % (% Cobs) ([8]; 0.0222 ppm [mg/L]): 33%

C#CCOc1ccc(CCNC(=O)C(OCC#C)c2ccc(Cl)cc2)cc1OC (stereo not drawn) [Cpd F-1]
Observed control in % (% Cobs) ([7]; 5.4 ppm [mg/L]): 2%
Observed control in % (% Cobs) ([7]; 16.2 ppm [mg/L]): 6%

Fc1ccc([C@]2(Cn3cncn3)O[C@H]2c2ccccc2Cl)cc1 (racemic) [Epoxiconazole]
Observed control in % (% Cobs) ([4]; 0.0025 ppm [mg/L]): 9%
Observed control in % (% Cobs) ([4]; 0.0222 ppm [mg/L]): 39%

CC1COC(Cn2cncn2)(c2ccc(Oc3ccc(Cl)cc3)cc2Cl)O1 (stereo not drawn) [Difenoconazole]
Observed control in % (% Cobs) ([4]; 0.0008 ppm [mg/L]): 5%
Observed control in % (% Cobs) ([4]; 0.0025 ppm [mg/L]): 16%
Observed control in % (% Cobs) ([4]; 0.0074 ppm [mg/L]): 73%

Reference: patent publication US8124566B2 (priority 2004, dated 2012)
